# Reference: patent US8137978B2, “Diagnostic method for biomarkers of adverse coronary events” (Saint Louis University, priority 2009, dated 2012)
# Key:
# phagocyte = experiment: 2-BrHDA phagocyte chemoattractant activity; type: cell-based; conditions: phagocytes
# HepG2 cells = experiment: 2-chloropalmitic acid metabolism by HepG2 cells (GC-MS); type: in vitro ADME; conditions: added to cell culture medium, FIG. 9 Panel A
# Source text: Two other chlorinated lipids that have prognostic value are α-chloroadipic acid and α-ClFA that is complexed (stored) in triglyceride pools. α-ClFA is metabolized by either storage in triglyceride pools or is broken down in the liver (FIG. 8). In brief α-ClFA is omega oxidized to produce dicarboxylic acids that are shortened and eventually excreted in the urine. […] Concomitant with the loss of 2-chloropalmitic acid is the accumulation of the omega oxidation product, 2-chlorohexadecanedioc acid (Panel B of FIG. 9). Further metabolism of 2-chlorohexadecanedioc acid leads to 2-chlorotetradecanedioc acid (Panel C of FIG. 9) and eventually 2-chloroadipic acid (Panel D of FIG. 9). These metabolites were quantified using gas chromatography-mass spectrometry techniques employing conversion of the carboxylic acids and dicarboxylic acids to their pentafluorobenzyl ester derivatives and negative ion-chemical ionization mass spectrometry.
# [1] = system: eosinophil peroxidase in PMA-stimulated eosinophils; conditions: physiological concentrations of NaCl and NaBr, FIG. 12
# Experimental: Further studies have shown that reactive brominating species (RBS), produced by either MPO- or EPO-released by activated neutrophil or eosinophil, respectively, target plasmalogens. […] Bromide was the preferred substrate for eosinophil peroxidase and chloride was not appreciably used even at a 1000-fold molar excess. […] 2-BrHDA is preferentially produced in PMA-stimulated eosinophils (+PMA) incubated in the presence of physiological concentrations of NaCl and NaBr (FIG. 12). […] These findings may have implications in eosinophilic heart disease as well as pulmonary disease and some cancers, which include eosinophil infiltrations.
compound,measurement,setting,value
"CCCCCCCCCCCCCCC(Br)C=O (stereo not drawn) [2-BrHDA, 2-bromohexadecanal]",chemoattractant activity,phagocyte,phagocyte chemoattractant
CCCCCCCCCCCCCCC(Cl)C(=O)O (stereo not drawn) [2-chlorohexadecanoic acid],2-chloropalmitic acid remaining in cell culture medium over time,HepG2 cells,decreases in a time and concentration dependent manner
[N-]=[N+]=[N-] [azide],2-BrHDA production in the presence of the peroxidase inhibitor,[1],2-BrHDA was not produced
